In ChEMBL document CHEMBL1201862, “PubChem BioAssay data set” (2004):
Activity calls are given as the source filed them.

Legend:
[1] = THP-1 cell cytotoxicity, cytotoxicity control, set 4 (AID 504911); format: functional; settings: Mycobacterium tuberculosis
[2] = THP-1 cell cytotoxicity, dose response, cytotoxicity control, set 3 (AID 504852); format: functional; settings: Mycobacterium tuberculosis
[3] = molecular target: Platelet-activating factor acetylhydrolase 2, cytoplasmic (Mus musculus, UniProt Q8VDG7); assay: Late stage assay provider results from the probe development effort to identify inhibitors of PAFAH2: Fluorescence-based biochemical gel-based Activity-Based Protein Profiling (ABPP) IC50. [Related pubchem assays (depositor defined):AID492956, AID492969, AID493030]
[4] = molecular target: Multidrug resistance protein CDR1 (Candida albicans, UniProt P43071); assay: Candida albicans Cdr1 pump inhibition curves – singleplex, Cherry Pick2 set, dose response (AID 623996); format: functional; settings: read-out: EC50_MICROM
[5] = molecular target: Benomyl/methotrexate resistance protein (Candida albicans, UniProt P28873); assay: Candida albicans Mdr1 pump inhibition curves – singleplex, Cherry Pick1 hits, dose response (AID 588608); format: functional
[6] = molecular target: T1, Endoribonuclease toxin MazF (Escherichia coli K-12, UniProt P0AE70); assay: substrate-only fluorescence increase artefacts – biochemical, single-stranded RNase substrate, counter-screen for MazEF activator project, dose response (AID 588502); format: functional
T1 sequence (P0AE70 whole entry): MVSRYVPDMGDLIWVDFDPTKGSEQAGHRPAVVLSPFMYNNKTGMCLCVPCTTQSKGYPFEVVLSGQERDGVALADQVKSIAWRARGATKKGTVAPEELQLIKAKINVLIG

CHO = CHO cell viability loss, potency – luminescence, cytotoxicity control for TLR9-MyD88 binding inhibitor project, dose response (AID 588339); format: functional, cell-based, hamster; settings: Cricetulus griseus;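 also: CHO cells stably coexpressing TLR9 and MyD88 fusions from primary screen; compound exposure lasted 48 hours before viability readout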
Beta Lactamase = Beta Lactamase (Pseudomonas aeruginosa, UniProt Q932Y6); assay: BLA reporter interference, concentration series – BLA reporter cells, FRET fluorescence, artefact control for TLR9-MyD88 binding inhibitor project, dose response (AID 588341); format: cell-based;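 also: cell based assay in CHO-K1 cells stably expressing beta-lactamase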
[7] = molecular target: T1, Endoribonuclease toxin MazF; assay: activation of MazEF endoribonuclease cleavage – biochemical, fluorescence, single-stranded RNA substrate, uHTS hits, dose response (AID 588481); format: functional
BJ [8] = assay: cells; format: functional, cell-based; settings: Homo sapiens
BJ [9] = assay: BJ-TERT fibroblast viability loss – cell-based, RAS-independent, luminescence, dose response (AID 1933); format: functional; settings: Homo sapiens
[10] = DRD fibroblast viability loss – cell-based, non-viral oncogenic, luminescence, dose response (AID 1934); format: functional; settings: Homo sapiens
BJ [11] = assay: BJ-TERT-LT-ST fibroblast viability loss – cell-based, RAS-independent, luminescence, dose response (AID 1935); format: functional; settings: Homo sapiens;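 also: BJ fibroblasts immortalized with TERT plus LT and ST oncogenes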
BJ [12] = assay: growth inhibition of engineered Ras-driven BJ cells – cell-based, alamar blue fluorescence, cherrypicked samples, dose response (AID 2631); format: functional; settings: Homo sapiens;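 also: confirmatory dose-response assay in RAS-dependent BJ fibroblasts engineered with TERT, LT and ST, with cytotoxicity read by fluorescence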

Sequence of Platelet-activating factor acetylhydrolase 2, cytoplasmic (Q8VDG7 whole entry): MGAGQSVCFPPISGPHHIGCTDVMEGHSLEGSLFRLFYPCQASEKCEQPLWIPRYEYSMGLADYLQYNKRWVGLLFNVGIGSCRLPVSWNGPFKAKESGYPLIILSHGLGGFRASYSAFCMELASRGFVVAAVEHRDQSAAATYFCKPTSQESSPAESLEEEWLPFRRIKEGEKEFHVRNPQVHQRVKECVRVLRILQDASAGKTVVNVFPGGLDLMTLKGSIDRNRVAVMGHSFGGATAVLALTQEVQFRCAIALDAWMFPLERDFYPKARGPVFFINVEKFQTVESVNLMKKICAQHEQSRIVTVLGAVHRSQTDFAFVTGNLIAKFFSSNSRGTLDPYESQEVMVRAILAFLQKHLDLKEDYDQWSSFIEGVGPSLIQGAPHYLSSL
Sequence of Beta Lactamase (Q932Y6 whole entry): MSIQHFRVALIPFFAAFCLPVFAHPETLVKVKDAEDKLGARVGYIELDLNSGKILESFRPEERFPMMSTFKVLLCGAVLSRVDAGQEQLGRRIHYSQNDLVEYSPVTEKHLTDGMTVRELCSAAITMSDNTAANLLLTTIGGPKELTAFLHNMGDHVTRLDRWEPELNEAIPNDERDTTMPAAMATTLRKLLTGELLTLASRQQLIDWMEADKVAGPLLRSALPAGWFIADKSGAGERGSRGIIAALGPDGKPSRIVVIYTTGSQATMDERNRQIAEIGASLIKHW
Sequence of Benomyl/methotrexate resistance protein (P28873 whole entry): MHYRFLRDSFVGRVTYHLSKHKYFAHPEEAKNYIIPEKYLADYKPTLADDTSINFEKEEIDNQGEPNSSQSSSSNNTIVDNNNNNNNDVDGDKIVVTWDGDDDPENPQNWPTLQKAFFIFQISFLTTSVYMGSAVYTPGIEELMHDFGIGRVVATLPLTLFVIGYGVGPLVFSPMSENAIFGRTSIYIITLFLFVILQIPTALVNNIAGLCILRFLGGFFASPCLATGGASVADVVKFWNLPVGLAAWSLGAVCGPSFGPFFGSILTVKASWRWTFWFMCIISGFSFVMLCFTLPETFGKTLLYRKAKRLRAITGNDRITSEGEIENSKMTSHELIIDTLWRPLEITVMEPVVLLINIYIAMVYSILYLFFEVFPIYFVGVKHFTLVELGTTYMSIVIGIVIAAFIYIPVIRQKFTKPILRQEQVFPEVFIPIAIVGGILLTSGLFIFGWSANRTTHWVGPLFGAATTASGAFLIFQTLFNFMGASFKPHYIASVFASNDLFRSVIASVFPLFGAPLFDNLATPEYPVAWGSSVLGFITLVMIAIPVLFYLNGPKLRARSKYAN
Sequence of Multidrug resistance protein CDR1 (P43071 whole entry, looked up): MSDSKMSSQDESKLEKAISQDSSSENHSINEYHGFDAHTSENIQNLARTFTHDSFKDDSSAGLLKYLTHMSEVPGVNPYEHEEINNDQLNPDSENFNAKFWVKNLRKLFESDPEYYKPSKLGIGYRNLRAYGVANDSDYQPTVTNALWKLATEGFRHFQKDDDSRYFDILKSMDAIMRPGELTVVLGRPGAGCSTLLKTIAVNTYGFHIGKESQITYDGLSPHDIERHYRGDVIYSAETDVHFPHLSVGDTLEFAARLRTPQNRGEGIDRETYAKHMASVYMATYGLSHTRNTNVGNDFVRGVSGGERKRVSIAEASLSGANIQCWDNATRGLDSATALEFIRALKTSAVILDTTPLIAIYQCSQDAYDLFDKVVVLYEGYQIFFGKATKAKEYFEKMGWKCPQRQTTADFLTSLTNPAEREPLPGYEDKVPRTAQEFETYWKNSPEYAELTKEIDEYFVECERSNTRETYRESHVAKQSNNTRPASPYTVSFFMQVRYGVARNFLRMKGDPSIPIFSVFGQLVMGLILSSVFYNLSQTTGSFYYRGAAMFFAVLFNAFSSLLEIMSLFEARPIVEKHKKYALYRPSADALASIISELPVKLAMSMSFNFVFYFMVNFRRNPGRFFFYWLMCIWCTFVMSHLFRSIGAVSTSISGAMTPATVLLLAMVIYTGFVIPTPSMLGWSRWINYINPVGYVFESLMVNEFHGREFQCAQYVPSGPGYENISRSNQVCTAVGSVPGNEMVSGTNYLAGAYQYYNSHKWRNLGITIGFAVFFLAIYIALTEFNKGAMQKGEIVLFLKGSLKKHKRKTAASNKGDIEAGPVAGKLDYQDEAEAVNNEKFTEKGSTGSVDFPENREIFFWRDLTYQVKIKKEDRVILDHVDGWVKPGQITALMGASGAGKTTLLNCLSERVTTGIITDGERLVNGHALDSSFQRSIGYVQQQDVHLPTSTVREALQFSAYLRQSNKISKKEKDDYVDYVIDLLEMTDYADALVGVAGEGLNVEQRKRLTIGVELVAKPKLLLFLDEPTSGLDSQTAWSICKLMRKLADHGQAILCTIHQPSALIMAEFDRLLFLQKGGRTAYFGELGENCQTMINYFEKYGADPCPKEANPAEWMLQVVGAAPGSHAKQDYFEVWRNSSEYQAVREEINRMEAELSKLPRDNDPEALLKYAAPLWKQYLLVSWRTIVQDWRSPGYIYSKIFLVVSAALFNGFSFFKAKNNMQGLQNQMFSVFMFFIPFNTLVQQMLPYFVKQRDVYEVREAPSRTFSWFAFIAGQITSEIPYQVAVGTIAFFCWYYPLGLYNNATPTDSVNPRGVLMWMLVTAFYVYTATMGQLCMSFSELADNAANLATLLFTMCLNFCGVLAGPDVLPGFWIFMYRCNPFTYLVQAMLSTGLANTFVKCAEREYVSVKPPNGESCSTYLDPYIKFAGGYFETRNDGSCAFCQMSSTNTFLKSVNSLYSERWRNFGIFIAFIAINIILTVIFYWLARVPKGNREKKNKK

With `O=C(CSc1ccccn1)NC1CCCCC1` the CC50 [1] was > 100 µM (active) and the CC50 [2] was > 100 µM (active).
With `O=C(N1CCCC1)n1ncc(-c2ccc(Oc3ccccc3)cc2)n1` the IC50 [3] was 0.002 µM (active).
In the case of `COc1ccc(S(=O)(=O)N(C)C[C@H]2Oc3c(NC(=O)NC4CCCCC4)cccc3C(=O)N([C@H](C)CO)C[C@@H]2C)cc1`, the EC50 [4] was 10.4 µM (active) and the EC50 [5] was 10.1 µM (active).
For `Cn1cccc1/C=C1\CCC/C(=C\c2cccn2C)C1=O`, the EC50 [6] was 23.9 µM (inactive), the IC50 (CHO) was > 49.8 µM (inactive) and the IC50 (Beta Lactamase) was 10.9 µM (inactive). For the same molecule, the EC50 [7] was > 99 µM (inactive).
In the case of `Cc1nc(=O)c2cc(CN(C)c3ccc(C(=O)N[C@@H](CCC(=O)O)C(=O)O)s3)ccc2[nH]1` [RALTITREXED], the EC50 (BJ [8]) was 0.192 µM (inconclusive), the EC50 (BJ [9]) was > 150 µM (not active) and the EC50 [10] was > 150 µM (inconclusive). For the same molecule, the EC50 (BJ [11]) was > 150 µM (inconclusive) and the EC50 (BJ [12]) was > 133 µM (inactive).
